Experimental data: patent publication US20260097111A1, “ETHER LIPIDS FOR HYPERACTIVATION OF MAMMALIAN DENDRITIC CELLS” (priority 2022, published 2026)

Legend:
Type in all cases: cell-based
[1] = test system: human monocyte-derived dendritic cells (moDCs); test: IL-1β secretion by human moDCs treated with lipid and R848; details: human moDCs primed with R848 for 3 hours, then nigericin; FIG. 2B
Method: (§1) Human monocytes were isolated from Leukopaks purchased from Miltenyi using the StraightFrom Leukopak CD14 microbead kit (Miltenyi). Isolations were completed following manufacturer's instructions. Monocytes were then aliquoted and frozen in fetal bovine serum containing 10% dimethyl sulfoxide. For studies with monocyte-derived dendritic cell (moDC) cultures, monocytes were thawed and cultured in RPMI medium containing 10% FBS, 50 units/mL penicillin, […] streptomycin, 2 mM L-glutamine, 1 mM sodium pyruvate, […] beta-mercaptoethanol, 10 mM HEPES, and Gibco MEM non-essential amino acids (R10 media). To differentiate monocytes into moDCs, recombinant human GM-CSF (50 ng/mL) and IL-4 (25 ng/mL) were added to R10 media. Cells were cultured for 6 days with GM-CSF and IL-4, with an additional cell feeding with R10 containing GM-CSF and IL-4 on day 3.
Six days after differentiation, moDC were collected and counted. Cells were plated into 96-well flat-bottom plates at 1×10^5 cells/well. Cells were treated with or without 1 μg/mL R848 (final) and with or without a hyperactivating lipid (or vehicle control). In some experiments, MCC950, an inhibitor of the NLRP3 inflammasome, was added at a final concentration of 10 uM. In some experiments, nigericin, which causes NLRP3 inflammasome activation and subsequent pyroptosis, was used as a positive control at 20 uM. Cells and stimuli totaled a final volume of […].
Lipid stocks were then further diluted in PBS to treat cells.
(§2) After an overnight incubation, cells and culture supernatant were used for downstream readouts. One hundred and fifty microliters of cell supernatant were collected. Viability was measured using the CellTiter-Glo assay (Promega) which measures ATP content from cells. Fifty microliters of CellTiter-Glo reagent were added to 50 μL of cells. Luminescence was quantified on a SpectraMax m5e plate reader using an integration time of 500 milliseconds. Viability data were set relative to control conditions where cells were treated with only R848. To measure IL-1β secretion, the human IL-1β Lumit kit (Promega) was used to assay cell culture supernatant. Culture supernatant samples were incubated with enzyme-linked antibodies in a 384-well plate for 1 hour before addition of luminescent substrate. Samples were measured for luminescence with an integration time of 500 milliseconds. IL-1β concentrations of samples was determined by interpolation from a standard curve using 4-parameter logistic regression analysis. Studies were performed on three different human donor samples, and each biological condition was tested in triplicate. Graphed data represent means from each donor.
as §1, with “Human moDC Production. Human” for “Human”, “(Miltenyi) according to the” for “(Miltenyi). Isolations were completed following”, “To differentiate” for “For studies with”, “pyruvate, and” for “pyruvate,”, “beta-mercaptoethanol” for “beta-mercaptoethanol, 10 mM HEPES, and Gibco MEM non-essential amino acids”
Hyperactivating Lipid Formulation—Compound 10. Lipid stocks were formulated at 200 μg/mL lipid in 5% Kolliphor P407 (KP407) in PBS.

human moDCs [2] = test: Cell viability of human moDCs (CellTiter-Glo); details: human
Method: as §2
Measurement of Cytokine Secretion and Cell Viability. After an overnight incubation, cells and culture supernatant were used for downstream readouts. One hundred and fifty microliters of cell culture supernatant were collected. Viability was measured using the CellTiter-Glo assay (Promega) which measures ATP content from cells. Fifty microliters of CellTiter-Glo reagent were added to 50 μL of cells. Luminescence was quantified on a SpectraMax m5e plate reader using an integration time of 500 milliseconds. Viability data were set relative to control conditions where cells were treated with only R848. To measure IL-1β secretion, the human IL-1β Lumit kit (Promega) was used. […] Samples were measured for luminescence with an integration time of 500 milliseconds. IL-1β concentrations of samples was determined by interpolation from a standard curve using 4-parameter logistic regression analysis. […]

human moDCs [3] = test: moDC viability by LDH release and CellTiter-Glo 2.0
Method: Monocyte Isolation, Storage, and Differentiation into moDC.
CellTiter-Glo 2.0 Cell Viability Assay. As an additional method to measure cell viability, CellTiter-Glo 2.0 Cell Viability Assay kit from Promega was used. CellTiter-Glo 2.0 reagent was used according to instructions of the manufacturer. Briefly, frozen reagent was thawed at 4° C. and aliquoted. Aliquots were stored at 4° C. in the dark. After removing 150 μL of the cell culture volume for use in other assays, cells were lysed with 50 μL/well CellTiter-Glo reagent by pipetting up and down. After incubating in the dark at RT for 10 min, samples were transferred to white opaque 96-well plates. Luminescence was measured for 500 ms/well using a Spectramax M3 plate reader. Luminescence values were normalized to the mean values of control samples and multiplied 100-fold to report values as percentage viability.

Structure (SMILES): CO[C@@H]1C[C@@H](C[C@H]2CC[C@H](C)[C@H]([C@@H](C)C(=O)O)O2)O[C@]2(O[C@](C)([C@H]3CC[C@@](C)([C@@H]4O[C@@H]([C@H]5O[C@@](O)(CO)[C@H](C)C[C@@H]5C)C[C@@H]4C)O3)C[C@H]2C)[C@@H]1C [nigericin]
- IL-1β secretion [1]: IL-1β was produced
- decrease in cell viability (human moDCs [2]): approximately 50%
- cell viability (CellTiter-Glo) (human moDCs [3]): below 2%
- cell viability (LDH release assay) (human moDCs [3]): below 75%
